For assay [1], the target named is T1, mineralocorticoid (MR) receptor (Homo sapiens, UniProt P08235).
T1 construct: containing endogenous mineralocorticoid-(MR) and progesterone (PR) receptors; endogenous in cells; host or cells: T47D/MMTV-5 (human breast carcinoma, stably carrying the pMAMneo-Luc reporter)
T1 sequence (P08235 1-984): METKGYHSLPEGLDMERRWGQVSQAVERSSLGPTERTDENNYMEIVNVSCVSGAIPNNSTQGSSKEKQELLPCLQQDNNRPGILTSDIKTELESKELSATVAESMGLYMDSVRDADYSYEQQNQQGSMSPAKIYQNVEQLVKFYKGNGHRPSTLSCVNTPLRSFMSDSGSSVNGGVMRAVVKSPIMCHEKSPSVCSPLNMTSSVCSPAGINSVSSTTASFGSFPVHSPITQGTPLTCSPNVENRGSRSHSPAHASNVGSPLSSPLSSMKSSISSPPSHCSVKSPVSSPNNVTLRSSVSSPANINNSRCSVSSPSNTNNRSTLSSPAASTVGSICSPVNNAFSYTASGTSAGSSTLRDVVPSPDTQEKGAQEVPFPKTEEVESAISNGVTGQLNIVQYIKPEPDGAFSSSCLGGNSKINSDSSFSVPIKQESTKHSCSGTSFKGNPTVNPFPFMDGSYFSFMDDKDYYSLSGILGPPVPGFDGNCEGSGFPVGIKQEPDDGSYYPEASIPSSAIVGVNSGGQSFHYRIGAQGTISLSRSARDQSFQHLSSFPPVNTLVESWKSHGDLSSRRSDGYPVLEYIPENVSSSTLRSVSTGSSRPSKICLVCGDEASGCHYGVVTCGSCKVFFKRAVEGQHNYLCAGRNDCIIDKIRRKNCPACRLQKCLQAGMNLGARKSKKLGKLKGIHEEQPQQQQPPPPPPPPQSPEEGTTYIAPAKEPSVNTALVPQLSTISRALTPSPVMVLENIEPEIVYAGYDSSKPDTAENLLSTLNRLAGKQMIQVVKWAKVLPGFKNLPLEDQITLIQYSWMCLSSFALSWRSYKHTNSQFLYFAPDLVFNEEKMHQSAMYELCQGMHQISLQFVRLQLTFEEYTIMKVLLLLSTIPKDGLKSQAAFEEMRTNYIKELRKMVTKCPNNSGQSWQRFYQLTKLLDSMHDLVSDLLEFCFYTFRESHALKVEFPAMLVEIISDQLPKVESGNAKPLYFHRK
Nature of the assay: MR functional assay using T47D/MMTV-5 cells. The format is cell-based. Conditions: read-out: inhibition of the MR functional response. As to the method: (§1) As for the SW 1353 cell line, T47D cells was transfected with the same pMAMneo-Luc plasmid, and stable lines selected with geneticin.
(§2) T47D/MMTV-5 cells were distributed in 96-well plates (100 μl) in RPMI1640 medium +10% Charcoal stripped FCS. The cells were incubated for 24 hrs in the CO2-oven. A volume of 100 μl of the compound dilutions in medium +agonist (500 nM aldost; 50 nM progest) were added, and the plates further incubated for another 24 hrs after which the luciferase expression was measured.

Assay [2] addresses T2, progesterone (PR) receptor (Homo sapiens, UniProt P06401).
T2 construct: containing endogenous mineralocorticoid-(MR) and progesterone (PR) receptors; endogenous in cells; host or cells: T47D/MMTV-5 (human breast carcinoma, stably carrying the pMAMneo-Luc reporter)
T2 sequence (P06401 1-933): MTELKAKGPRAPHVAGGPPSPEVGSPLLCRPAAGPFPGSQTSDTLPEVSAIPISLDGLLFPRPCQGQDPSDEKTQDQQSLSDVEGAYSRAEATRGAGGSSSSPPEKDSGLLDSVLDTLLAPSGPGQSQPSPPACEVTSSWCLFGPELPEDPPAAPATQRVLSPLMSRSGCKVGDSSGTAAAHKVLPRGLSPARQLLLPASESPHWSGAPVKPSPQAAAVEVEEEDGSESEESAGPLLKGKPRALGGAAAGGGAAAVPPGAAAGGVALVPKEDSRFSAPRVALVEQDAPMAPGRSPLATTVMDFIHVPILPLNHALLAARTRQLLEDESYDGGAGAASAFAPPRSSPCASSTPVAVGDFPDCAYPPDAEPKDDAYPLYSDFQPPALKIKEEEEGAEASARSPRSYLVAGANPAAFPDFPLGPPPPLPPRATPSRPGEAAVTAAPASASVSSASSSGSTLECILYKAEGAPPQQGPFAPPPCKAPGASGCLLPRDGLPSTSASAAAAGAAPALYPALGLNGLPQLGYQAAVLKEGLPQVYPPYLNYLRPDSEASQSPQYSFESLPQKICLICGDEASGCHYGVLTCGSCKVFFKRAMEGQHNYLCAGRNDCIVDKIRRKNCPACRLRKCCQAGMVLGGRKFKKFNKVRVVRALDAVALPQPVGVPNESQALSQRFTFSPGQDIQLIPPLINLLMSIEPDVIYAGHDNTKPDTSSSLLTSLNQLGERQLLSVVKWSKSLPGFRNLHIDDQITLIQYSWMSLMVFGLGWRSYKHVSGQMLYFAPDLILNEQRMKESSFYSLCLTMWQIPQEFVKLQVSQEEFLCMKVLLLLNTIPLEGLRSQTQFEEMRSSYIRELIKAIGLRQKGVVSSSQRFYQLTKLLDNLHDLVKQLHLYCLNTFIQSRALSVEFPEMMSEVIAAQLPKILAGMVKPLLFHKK
Nature of the assay: PR functional assay using T47D/MMTV-5 cells. Conditions: read-out: inhibition of the PR agonist response. The format is cell-based. As to the method:
as §1, §2

The target in assay [3] is T3, glucocorticoid receptors (Homo sapiens, UniProt P04150).
T3 sequence (P04150 1-777): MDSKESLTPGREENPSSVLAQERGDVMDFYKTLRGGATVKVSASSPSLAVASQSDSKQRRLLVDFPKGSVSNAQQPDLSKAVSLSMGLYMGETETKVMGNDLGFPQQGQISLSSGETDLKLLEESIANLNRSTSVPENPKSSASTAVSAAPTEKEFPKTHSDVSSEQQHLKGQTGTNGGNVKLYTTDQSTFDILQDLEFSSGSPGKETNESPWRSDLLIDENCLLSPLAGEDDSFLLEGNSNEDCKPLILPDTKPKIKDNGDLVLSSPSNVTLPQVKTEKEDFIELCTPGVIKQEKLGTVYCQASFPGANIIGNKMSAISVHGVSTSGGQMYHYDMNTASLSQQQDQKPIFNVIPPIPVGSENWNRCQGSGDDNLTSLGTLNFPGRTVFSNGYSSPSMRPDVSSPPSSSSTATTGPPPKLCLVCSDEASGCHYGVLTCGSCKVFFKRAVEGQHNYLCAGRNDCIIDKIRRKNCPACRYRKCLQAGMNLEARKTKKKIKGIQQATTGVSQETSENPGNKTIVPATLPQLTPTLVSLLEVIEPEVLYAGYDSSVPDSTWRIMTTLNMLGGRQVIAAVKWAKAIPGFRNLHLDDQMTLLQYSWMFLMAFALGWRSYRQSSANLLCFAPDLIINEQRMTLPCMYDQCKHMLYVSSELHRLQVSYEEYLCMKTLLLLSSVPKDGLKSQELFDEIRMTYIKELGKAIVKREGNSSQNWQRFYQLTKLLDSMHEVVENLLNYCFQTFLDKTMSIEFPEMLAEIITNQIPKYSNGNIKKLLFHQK
Nature of the assay: GR functional assay using SW1353/MMTV-5 cells (dexamethasone-induced luciferase). The format is cell-based. Also noted: contains endogenous glucocorticoid receptors; endogenous in cells; host or cells: SW1353/MMTV-5 (human chondrosarcoma, stably carrying the pMAMneo-Luc reporter). Conditions: SW1353/MMTV-5 cells, antagonism of 50 nM dexamethasone, luciferase; read-out: GR Functional. Summed up: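 Human chondrosarcoma line stably carrying firefly luciferase under an MMTV LTR glucocorticoid-responsive element, with endogenous GR. Cells were plated in 96-well plates and held 24 hrs in geneticin-free medium without CO2.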

Assay [4] has as its target T3, glucocorticoid receptors. As to the kind of experiment: Glucocorticoid receptor binding displacement assay with 3H-dexamethasone. Set-up: This GR was a full-length steroid hormone receptor; host or cells: recombinant baculovirus-infected insect cells. Conditions: Ki from IC50 by Cheng-Prusoff; 2.5 nM 3H-dexamethasone; read-out: GR Binding.

Each structure is given as a SMILES string. pKi: −log10 of the molar value.

As for `CC(C)(C)c1ccc(S(=O)(=O)N2CCC3=Cc4c(cnn4-c4ccc(F)cc4)C[C@]3(C)C2)cc1` [Example 29, (S)-6-(4-tert-Butyl-benzenesulfonyl)-1-(4-fluoro-phenyl)-4a-methyl-4,4a,5,6,7,8-hexahydro-1H-1,2,6-triaza-cyclopenta[b]naphthalene], the inhibition (commonly the relative decrease from the control value, in per cent) at 3 µM was determined as 10% in assay [1] and 8% in assay [2].

Turning to `Cn1cc2c(n1)C=C1CCN(S(=O)(=O)c3ccc(C(C)(C)C)cc3)CC1(Cc1ccccc1)C2` (stereo not shown) [drawing 248], the pKi at glucocorticoid receptors [3] was under 7.00; at glucocorticoid receptors [4] it was over 8.00.

Take `CC(C)(C)c1ccc(S(=O)(=O)N2CCC3=Cc4c(cnn4-c4ccc(F)cc4)CC3(Cc3ccccc3)C2)cc1` (stereo not shown) [drawing 249]: the results for the pKi on glucocorticoid receptors [3] and on glucocorticoid receptors [4] were 7.00 to 8.00 and over 8.00, respectively.

As to `CC(C)(C)c1ccc(S(=O)(=O)N2CCC3=Cc4c(cnn4Cc4ccccc4)CC3(Cc3ccccc3)C2)cc1` (stereo not shown) [drawing 253], the pKi at glucocorticoid receptors [3] was under 7.00; at glucocorticoid receptors [4] it was over 8.00.

As to `CC(C)(C)c1ccc(S(=O)(=O)N2CCC3=Cc4c(cnn4-c4ccc(C#N)cc4)CC3(Cc3ccccc3)C2)cc1` (stereo not shown) [drawing 255], the pKi at glucocorticoid receptors [3] was 7.00 to 8.00; at glucocorticoid receptors [4], over 8.00.

Consider `CC(C)(C)c1ccc(S(=O)(=O)N2CCC3=Cc4c(cnn4-c4ccc(S(N)(=O)=O)cc4)CC3(Cc3ccccc3)C2)cc1` (stereo not shown) [drawing 256], for which the figures for the pKi on glucocorticoid receptors [3] and at glucocorticoid receptors [4] were under 7.00 and 7.00 to 8.00, respectively.

As to `Fc1ccc(-n2ncc3c2C=C2CCN(Cc4ccccc4)CC2(Cc2ccccc2)C3)cc1` (stereo not shown) [drawing 258], the pKi at glucocorticoid receptors [3] was under 7.00; at glucocorticoid receptors [4], 7.00 to 8.00.

Regarding `COc1ccc(CC23Cc4cnn(-c5ccc(F)cc5)c4C=C2CCN(Cc2ccccc2)C3)cc1` (stereo not shown) [drawing 260], the pKi on glucocorticoid receptors [3] was under 7.00; at glucocorticoid receptors [4] it was over 8.00.

These data come from US8557839B2, “Fused ring azadecalin glucocorticoid receptor modulators” (Corcept Therapeutics, Inc., priority 2004, dated 2013).
